Type in all cases: binding
In experiment [1] the target is T1, human transferrin receptor (hTfR) (Homo sapiens, UniProt P02786). The experiment can be described thus: SPR measurement under pH 7.4 conditions (Biacore T200, CM3 chip, hTfR captured by His Tag antibody). Conditions: SPR, pH 7.4; read-out: hTfR SPR pH7.4 KD. In general terms: Surface plasmon resonance follows binding to a sensor surface in real time, without labels.

Experiment [2] has as its target T1, human transferrin receptor (hTfR). The experiment can be described thus: SPR measurement under pH 6.0 conditions (Biacore T200, NTA chip, immobilized hTfR). As to conditions: SPR, pH 6.0; read-out: hTfR SPR pH6.0 KD.
Experiment [3] has the same target. The experiment can be described thus: Evaluation of pH dependence (ratio of SPR koff or KD at pH 6.0 to pH 7.4). As to conditions: ratio of koff at pH 6.0 to pH 7.4. On the procedure: The ratio of the calculated koff or KD values under pH 6.0 conditions to those under pH 7.4 conditions was calculated to check pH dependency.

Bridge positions count the residues as written; N and C are the ends. Square brackets hold non-standard residues; d marks the D form. Peptide text beside a SMILES is read from it. * marks the point of attachment. Ala(imidazo(1,2-a)pyr3yl) = N[C@@H](Cc1cnc2ccccn12)C(=O)O; Trp(1-CH2COOH) = N[C@@H](Cc1cn(CC(=O)O)c2ccccc12)C(=O)O; NMePhe(4-COOH) = CN[C@@H](Cc1ccc(C(=O)O)cc1)C(=O)O; Nle(6-morpholino) = N[C@@H](CCCCN1CCOCC1)C(=O)O; Phe(3-COOH) = N[C@@H](Cc1cccc(C(=O)O)c1)C(=O)O; NMePhe(3-Cl) = CN[C@@H](Cc1cccc(Cl)c1)C(=O)O; 3Pal(6-OMe) = COc1ccc(C[C@H](N)C(=O)O)cn1; 3Pal(6-NH2) = Nc1ccc(C[C@H](N)C(=O)O)cn1; Tyr(3-Me) = Cc1cc(C[C@H](N)C(=O)O)ccc1O; NMeY = CN[C@@H](Cc1ccc(O)cc1)C(=O)O; Nva(3-Et) = CCC(CC)[C@H](N)C(=O)O; NH(CH2CH2O)4Me = COCCOCCOCCOCCN*; hArg = N=C(N)NCCCC[C@H](N)C(=O)O; 4Pal = N[C@@H](Cc1ccncc1)C(=O)O; PEG4 = NCCOCCOCCOCCOCCC(=O)O; Carboxymethyl = O=C(O)C*

Eleven compounds from EP4667483A1, “HUMAN TRANSFERRIN RECEPTOR-BINDING PEPTIDE” (JCR Pharmaceuticals Co., Ltd., priority 2023, dated 2024) can be followed below.

T1 sequence (P02786 whole entry): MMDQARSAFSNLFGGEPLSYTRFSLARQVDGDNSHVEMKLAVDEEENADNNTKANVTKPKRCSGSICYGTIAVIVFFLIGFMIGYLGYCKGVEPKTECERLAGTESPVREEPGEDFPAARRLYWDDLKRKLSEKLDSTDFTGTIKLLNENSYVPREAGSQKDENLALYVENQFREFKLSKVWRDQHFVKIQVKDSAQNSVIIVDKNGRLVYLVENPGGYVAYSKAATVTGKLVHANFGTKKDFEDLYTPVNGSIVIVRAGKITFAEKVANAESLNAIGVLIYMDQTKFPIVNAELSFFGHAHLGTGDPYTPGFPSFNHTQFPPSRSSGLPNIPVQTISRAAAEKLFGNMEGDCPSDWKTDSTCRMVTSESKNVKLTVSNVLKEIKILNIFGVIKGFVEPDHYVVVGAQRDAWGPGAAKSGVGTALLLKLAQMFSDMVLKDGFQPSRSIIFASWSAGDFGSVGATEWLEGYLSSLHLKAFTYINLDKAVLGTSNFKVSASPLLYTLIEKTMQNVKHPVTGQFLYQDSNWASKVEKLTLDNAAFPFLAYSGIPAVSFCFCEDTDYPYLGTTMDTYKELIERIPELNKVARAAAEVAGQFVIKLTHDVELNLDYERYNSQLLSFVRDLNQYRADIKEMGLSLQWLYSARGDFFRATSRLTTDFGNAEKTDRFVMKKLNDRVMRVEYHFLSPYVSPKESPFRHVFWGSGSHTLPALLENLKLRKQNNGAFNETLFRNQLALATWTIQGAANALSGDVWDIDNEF

By Kd is commonly meant the equilibrium constant for the complex coming apart. With `CC[C@H](C)[C@@H]1NC(=O)[C@H](Cc2ccc(OCC(=O)O)cc2)NC(=O)[C@H](Cc2ccc(O)cc2)NC(=O)[C@H](CC(N)=O)NC(=O)[C@H](Cc2cn(CC(=O)O)c3ccccc23)NC(=O)[C@H](C(C)C)NC(=O)[C@H](Cc2cccc(Cl)c2)N(C)C(=O)[C@H](C(C)C)NC(=O)[C@H](C)NC(=O)CSC[C@@H](C(=O)NCCOCCOCCOCCOCCC(N)=O)NC(=O)[C@H](Cc2ccc(O)cc2)N(C)C(=O)[C@H](Cc2ccncc2)NC(=O)[C@H](CCCCN2CCOCC2)NC(=O)[C@H](CCCCN2CCOCC2)NC(=O)[C@H]([C@@H](C)CC)NC1=O` [compound 69] ({CH2CO}-AV[NMePhe(3-Cl)]V[Trp(1-CH2COOH)]NYY(Carboxymethyl)II[Nle(6-morpholino)][Nle(6-morpholino)][4Pal][NMeY]C[PEG4]-NH2; thioether N-15), the Kd in experiment [1] came out at 8.57 nM; in experiment [2], 33.5 nM. Besides, the “dependency koff pH6.0/7.4” value in experiment [3] is on record as 9.63.

For `CC[C@H](C)[C@@H]1NC(=O)[C@H](Cc2ccc(OCC(=O)O)cc2)NC(=O)[C@H](Cc2ccc(N)nc2)NC(=O)[C@H](CC(N)=O)NC(=O)[C@H](Cc2c[nH]c3ccccc23)NC(=O)[C@H](C(C)C)NC(=O)[C@H](Cc2cccc(Cl)c2)N(C)C(=O)[C@H](C(C)C)NC(=O)[C@H](C)NC(=O)CSC[C@@H](C(=O)NCCOCCOCCOCCOCCC(N)=O)NC(=O)[C@H](Cc2ccc(O)cc2)N(C)C(=O)[C@H](Cc2cccc(C(=O)O)c2)NC(=O)[C@H](CCCNC(=N)N)NC(=O)[C@H](CCC(=O)NCCOCCOCCOCCOC)NC(=O)[C@H]([C@@H](C)CC)NC1=O` [compound 70] ({CH2CO}-AV[NMePhe(3-Cl)]VWN[3Pal(6-NH2)]Y(Carboxymethyl)IIE(NH(CH2CH2O)4Me)R[Phe(3-COOH)][NMeY]C[PEG4]-NH2; thioether N-15), the Kd in experiment [1] stood at 6.85 nM; in experiment [2] it was 42.4 nM. In experiment [3], the “dependency koff pH6.0/7.4” value was 20.00.

On to `CC[C@H](C)[C@@H]1NC(=O)[C@H](Cc2ccc(OCC(=O)O)cc2)NC(=O)[C@H](Cc2ccc(O)cc2)NC(=O)[C@H](CC(N)=O)NC(=O)[C@H](Cc2cn(CC(=O)O)c3ccccc23)NC(=O)[C@H](C(C)C)NC(=O)[C@H](Cc2cccc(Cl)c2)N(C)C(=O)[C@H](C(C)C)NC(=O)[C@H](C)NC(=O)CSC[C@@H](C(=O)NCCOCCOCCOCCOCCC(N)=O)NC(=O)[C@H](Cc2ccc(O)cc2)N(C)C(=O)[C@H](Cc2cccc(C(=O)O)c2)NC(=O)[C@H](CCCNC(=N)N)NC(=O)[C@H](CCC(N)=O)NC(=O)[C@H](CCCCNC(=N)N)NC1=O` [compound 71] ({CH2CO}-AV[NMePhe(3-Cl)]V[Trp(1-CH2COOH)]NYY(Carboxymethyl)I[hArg]QR[Phe(3-COOH)][NMeY]C[PEG4]-NH2; thioether N-15), for which the Kd turned out to be 18 nM in experiment [1] and 75.2 nM in experiment [2]. Also, the “dependency koff pH6.0/7.4” value in experiment [3] turned out to be 12.78.

For the compound `CC[C@H](C)[C@@H]1NC(=O)[C@H](Cc2ccc(OCC(=O)O)cc2)NC(=O)[C@H](Cc2ccc(O)cc2)NC(=O)[C@H](CC(N)=O)NC(=O)[C@H](Cc2c[nH]c3ccccc23)NC(=O)[C@H](C(C)C)NC(=O)[C@H](Cc2cccc(Cl)c2)N(C)C(=O)[C@H](C(C)C)NC(=O)[C@H](C)NC(=O)CSC[C@@H](C(=O)NCCOCCOCCOCCOCCC(N)=O)NC(=O)[C@H](Cc2ccc(O)cc2)N(C)C(=O)[C@H](Cc2cccc(C(=O)O)c2)NC(=O)[C@H](CCCNC(=N)N)NC(=O)[C@H](CCC(N)=O)NC(=O)[C@H]([C@@H](C)CC)NC1=O` [compound 72] ({CH2CO}-AV[NMePhe(3-Cl)]VWNYY(Carboxymethyl)IIQR[Phe(3-COOH)][NMeY]C[PEG4]-NH2; thioether N-15), the Kd in experiment [1] is 3.34 nM. Besides, the “dependency koff pH6.0/7.4” value in experiment [3] was 5.72.

Consider `CC[C@H](C)[C@@H]1NC(=O)[C@H](Cc2ccc(OCC(=O)O)cc2)NC(=O)[C@H](Cc2ccc(O)cc2)NC(=O)[C@H](CC(N)=O)NC(=O)[C@H](Cc2cn(CCO)c3ccccc23)NC(=O)[C@H](C(C)C)NC(=O)[C@H](Cc2cccc(Cl)c2)N(C)C(=O)[C@H](C(C)C)NC(=O)[C@H](C)NC(=O)CSC[C@@H](C(=O)NCCOCCOCCOCCOCCC(N)=O)NC(=O)[C@H](Cc2ccc(O)cc2)N(C)C(=O)[C@H](Cc2cccc(C(=O)O)c2)NC(=O)[C@H](CCCNC(=N)N)NC(=O)[C@H](CCC(N)=O)NC(=O)[C@H]([C@@H](C)CC)NC1=O` [compound 73], for which the figures for the Kd in experiment [1] and in experiment [2] were 1.85 nM and 4.78 nM, respectively. The “dependency koff pH6.0/7.4” value in experiment [3] is recorded as 7.54.

For `CC[C@H](C)[C@@H]1NC(=O)[C@H](Cc2ccc(OCC(=O)O)cc2)NC(=O)[C@H](Cc2ccc(O)cc2)NC(=O)[C@H](CC(=O)NC)NC(=O)[C@H](Cc2c[nH]c3ccccc23)NC(=O)[C@H](C(C)C)NC(=O)[C@H](Cc2cccc(Cl)c2)N(C)C(=O)[C@H](C(C)C)NC(=O)[C@H](C)NC(=O)CSC[C@@H](C(=O)NCCOCCOCCOCCOCCC(N)=O)NC(=O)[C@H](Cc2ccc(O)cc2)N(C)C(=O)[C@H](Cc2cccc(C(=O)O)c2)NC(=O)[C@H](CCCNC(=N)N)NC(=O)[C@H](CCC(N)=O)NC(=O)[C@H]([C@@H](C)CC)NC1=O` [compound 74] ({CH2CO}-AV[NMePhe(3-Cl)]VWD(NHMe)YY(Carboxymethyl)IIQR[Phe(3-COOH)][NMeY]C[PEG4]-NH2; thioether N-15), the Kd in experiment [1] was found to be 45.3 nM; in experiment [2] it was 76.2 nM. In addition, in experiment [3], the “dependency koff pH6.0/7.4” value is 3.53.

As for `CCC(CC)[C@@H]1NC(=O)[C@H](Cc2ccc(OCC(=O)O)cc2)NC(=O)[C@H](Cc2ccc(N)nc2)NC(=O)[C@H](CC(N)=O)NC(=O)[C@H](Cc2cn(CC(=O)O)c3ccccc23)NC(=O)[C@H](C(C)C)NC(=O)[C@H](Cc2cccc(Cl)c2)N(C)C(=O)[C@H](C(C)C)NC(=O)[C@H](C)NC(=O)CSC[C@@H](C(=O)NCCOCCOCCOCCOCCC(N)=O)NC(=O)[C@H](Cc2ccc(C(=O)O)cc2)N(C)C(=O)[C@H](Cc2cccc(C(=O)O)c2)NC(=O)[C@H](CCCCN2CCOCC2)NC(=O)[C@H](CCCCN2CCOCC2)NC(=O)[C@H]([C@@H](C)CC)NC1=O` [compound 86] ({CH2CO}-AV[NMePhe(3-Cl)]V[Trp(1-CH2COOH)]N[3Pal(6-NH2)]Y(Carboxymethyl)[Nva(3-Et)]I[Nle(6-morpholino)][Nle(6-morpholino)][Phe(3-COOH)][NMePhe(4-COOH)]C[PEG4]-NH2; thioether N-15), the “dependency koff pH6.0/7.4” value in experiment [3] was found to be 28.16.

`CCC(CC)[C@@H]1NC(=O)[C@H](Cc2ccc(OCC(=O)O)cc2)NC(=O)[C@H](Cc2ccc(O)c(C)c2)NC(=O)[C@H](CC(N)=O)NC(=O)[C@H](Cc2cn(CC(=O)O)c3ccccc23)NC(=O)[C@H](C(C)C)NC(=O)[C@H](Cc2cccc(Cl)c2)N(C)C(=O)[C@H](C(C)C)NC(=O)[C@H](C)NC(=O)CSC[C@@H](C(=O)NCCOCCOCCOCCOCCC(N)=O)NC(=O)[C@H](Cc2ccc(O)cc2)N(C)C(=O)[C@H](Cc2cccc(C(=O)O)c2)NC(=O)[C@H](CCCNC(=N)N)NC(=O)[C@H](CCC(N)=O)NC(=O)[C@H]([C@@H](C)CC)NC1=O` [compound 89] ({CH2CO}-AV[NMePhe(3-Cl)]V[Trp(1-CH2COOH)]N[Tyr(3-Me)]Y(Carboxymethyl)[Nva(3-Et)]IQR[Phe(3-COOH)][NMeY]C[PEG4]-NH2; thioether N-15): the “dependency koff pH6.0/7.4” value in experiment [3] stood at 8.08.

On to `CCC(CC)[C@@H]1NC(=O)[C@H](Cc2ccc(OC)nc2)NC(=O)[C@H](Cc2ccc(O)cc2)NC(=O)[C@H](CC(N)=O)NC(=O)[C@H](Cc2cn(CC(=O)O)c3ccccc23)NC(=O)[C@H](C(C)C)NC(=O)[C@H](Cc2cccc(Cl)c2)N(C)C(=O)[C@H](C(C)C)NC(=O)[C@H](C)NC(=O)CSC[C@@H](C(=O)NCCOCCOCCOCCOCCC(N)=O)NC(=O)[C@H](Cc2ccc(O)cc2)N(C)C(=O)[C@H](Cc2cccc(C(=O)O)c2)NC(=O)[C@H](CCCNC(=N)N)NC(=O)[C@H](CCC(N)=O)NC(=O)[C@H]([C@@H](C)CC)NC1=O` [compound 90] ({CH2CO}-AV[NMePhe(3-Cl)]V[Trp(1-CH2COOH)]NY[3Pal(6-OMe)][Nva(3-Et)]IQR[Phe(3-COOH)][NMeY]C[PEG4]-NH2; thioether N-15), for which, in experiment [3], the “dependency koff pH6.0/7.4” value is on record as 8.01.

On to `CCC(CC)[C@@H]1NC(=O)[C@H](Cc2cnc3ccccn23)NC(=O)[C@H](Cc2ccc(O)cc2)NC(=O)[C@H](CC(N)=O)NC(=O)[C@H](Cc2cn(CC(=O)O)c3ccccc23)NC(=O)[C@H](C(C)C)NC(=O)[C@H](Cc2cccc(Cl)c2)N(C)C(=O)[C@H](C(C)C)NC(=O)[C@H](C)NC(=O)CSC[C@@H](C(=O)NCCOCCOCCOCCOCCC(N)=O)NC(=O)[C@H](Cc2ccc(O)cc2)N(C)C(=O)[C@H](Cc2cccc(C(=O)O)c2)NC(=O)[C@H](CCCNC(=N)N)NC(=O)[C@H](CCC(N)=O)NC(=O)[C@H]([C@@H](C)CC)NC1=O` [compound 91] ({CH2CO}-AV[NMePhe(3-Cl)]V[Trp(1-CH2COOH)]NY[Ala(imidazo(1,2-a)pyr3yl)][Nva(3-Et)]IQR[Phe(3-COOH)][NMeY]C[PEG4]-NH2; thioether N-15), for which, in experiment [3], the “dependency koff pH6.0/7.4” value stood at 9.32.

In the case of `CCC(CC)[C@@H]1NC(=O)[C@H](Cc2ccc(OCC(=O)O)cc2)NC(=O)[C@H](Cc2ccc(O)cc2)NC(=O)[C@H](CC(N)=O)NC(=O)[C@H](Cc2cn(CC(=O)O)c3ccccc23)NC(=O)[C@H](C(C)C)NC(=O)[C@H](Cc2cccc(Cl)c2)N(C)C(=O)[C@H](C(C)C)NC(=O)[C@H](C)NC(=O)CSC[C@@H](C(=O)NCCOCCOCCOCCOCCC(N)=O)NC(=O)[C@H](Cc2ccc(OC)cc2)N(C)C(=O)[C@H](Cc2cccc(C(=O)O)c2)NC(=O)[C@H](CCCNC(=N)N)NC(=O)[C@H](CCC(N)=O)NC(=O)[C@H]([C@@H](C)CC)NC1=O` [compound 93] ({CH2CO}-AV[NMePhe(3-Cl)]V[Trp(1-CH2COOH)]NYY(Carboxymethyl)[Nva(3-Et)]IQR[Phe(3-COOH)][NMeY](Me)C[PEG4]-NH2; thioether N-15), the “dependency koff pH6.0/7.4” value in experiment [3] was found to be 7.99.
